Experimental data from ChEMBL document CHEMBL5120893, “A Neuropeptide Y/F-like Polypeptide Derived from the Transcriptome of Turbinaria peltata Suppresses LPS-Induced Astrocytic Inflammation” (J Nat Prod, 2022).
Activity calls are given as the source filed them. The calls are words filed in the database; no cut-off is given here. Residues, ends and D or L forms follow the SMILES beside them.

What was measured:
C8-D1A [1] = test: Cytotoxicity against mouse C8D1A cells assessed as cell viability at 0.75 to 50 uM after 24 hrs by MTT assay; type: toxicity, cell-based; conditions: dose 0.75-50 µM
C8-D1A [2] = test: Inhibition of LPS-induced mouse C8D1A cell viability loss assessed as restoration of cell viability at 0.75 to 6 uM after 24 hrs by MTT assay; type: functional, cell-based; conditions: dose 0.75-6 µM
C8-D1A [3] = test: Antiinflammatory activity against mouse C8D1A cells assessed as inhibition of LPS-induced NO production measured after 24 hrs by Griess method; type: functional, cell-based; conditions: dose 0.75-6 µM, DDE = dose-dependent effect
C8-D1A [4] = test: Antiinflammatory activity against mouse C8D1A cells assessed as inhibition of LPS-induced iNOS production by Western blotting analysis; type: functional, cell-based; conditions: dose 0.75-3 µM, DDE = dose-dependent effect
C8-D1A [5] = test: Antiinflammatory activity against mouse C8D1A cells assessed as inhibition of LPS-induced ROS production measured after 24 hrs by fluorescent CM-H2DCFDA based flow cytometry; type: functional, cell-based; conditions: dose 0.75-3 µM, DDE = dose-dependent effect
C8-D1A [6] = test: Antiinflammatory activity against mouse C8D1A cells assessed as inhibition of LPS-induced IL-6 production at 0.75 to 3 uM pretreated for 4 hrs followed by LPS stimulation measured after 24 hrs by ELISA; type: functional, cell-based; conditions: dose 0.75-3 µM, time 28.0 hrs
C8-D1A [7] = test: Antiinflammatory activity against mouse C8D1A cells assessed as inhibition of LPS-induced IL-1beta production at 0.75 to 3 uM pretreated for 4 hrs followed by LPS stimulation measured after 24 hrs by ELISA; type: functional, cell-based; conditions: dose 0.75-3 µM, time 28.0 hrs
C8-D1A [8] = test: Antiinflammatory activity against mouse C8D1A cells assessed as inhibition of LPS-induced TNFalpha production at 0.75 to 3 uM pretreated for 4 hrs followed by LPS stimulation measured after 24 hrs by ELISA; type: functional, cell-based; conditions: dose 0.75-3 µM, time 28.0 hrs
C8-D1A [9] = test: Antiinflammatory activity against mouse C8D1A cells assessed as inhibition of LPS-induced IL-6 mRNA expression at 0.75 to 3 uM pretreated for 4 hrs followed by LPS stimulation measured after 24 hrs by real time PCR analysis; type: functional, cell-based; conditions: dose 0.75-3 µM, time 28.0 hrs
C8-D1A [10] = test: Antiinflammatory activity against mouse C8D1A cells assessed as inhibition of LPS-induced IL-1beta mRNA expression at 0.75 to 3 uM pretreated for 4 hrs followed by LPS stimulation measured after 24 hrs by real time PCR analysis; type: functional, cell-based; conditions: dose 0.75-3 µM, time 28.0 hrs
C8-D1A [11] = test: Antiinflammatory activity against mouse C8D1A cells assessed as inhibition of LPS-induced TNFalpha mRNA expression at 0.75 to 3 uM pretreated for 4 hrs followed by LPS stimulation measured after 24 hrs by real time PCR analysis; type: functional, cell-based; conditions: dose 0.75-3 µM, time 28.0 hrs
C8-D1A [12] = test: Antiinflammatory activity against mouse C8D1A cells assessed as inhibition of LPS-induced GFAP production at 0.75 to 3 uM pretreated for 4 hrs followed by LPS stimulation measured after 24 hrs by DMI-8 microscopy; type: functional, cell-based; conditions: dose 0.75-3 µM, time 28.0 hrs
[13] = molecular target: Inhibitor of nuclear factor kappa-B kinase subunit alpha/beta (Mus musculus) (UniProt Q60680+O88351); test: Inhibition of IKKalpha/beta phosphorylation at Ser176/180 in LPS-induced mouse C8D1A cells at 0.75 to 3 uM pretreated for 4 hrs followed by LPS stimulation measured after 24 hrs by Western blotting analysis; type: cell-based; conditions: dose 0.75-3 µM
[14] = molecular target: T1, Inhibitor of nuclear factor kappa-B kinase subunit beta (Mus musculus) (UniProt O88351); test: Inhibition of IkappaBalpha phosphorylation at […] in LPS-induced mouse C8D1A cells at 0.75 to 3 uM pretreated for 4 hrs followed by LPS stimulation measured after 24 hrs by Western blotting analysis; type: cell-based; conditions: dose 0.75-3 µM
T1 sequence (whole entry): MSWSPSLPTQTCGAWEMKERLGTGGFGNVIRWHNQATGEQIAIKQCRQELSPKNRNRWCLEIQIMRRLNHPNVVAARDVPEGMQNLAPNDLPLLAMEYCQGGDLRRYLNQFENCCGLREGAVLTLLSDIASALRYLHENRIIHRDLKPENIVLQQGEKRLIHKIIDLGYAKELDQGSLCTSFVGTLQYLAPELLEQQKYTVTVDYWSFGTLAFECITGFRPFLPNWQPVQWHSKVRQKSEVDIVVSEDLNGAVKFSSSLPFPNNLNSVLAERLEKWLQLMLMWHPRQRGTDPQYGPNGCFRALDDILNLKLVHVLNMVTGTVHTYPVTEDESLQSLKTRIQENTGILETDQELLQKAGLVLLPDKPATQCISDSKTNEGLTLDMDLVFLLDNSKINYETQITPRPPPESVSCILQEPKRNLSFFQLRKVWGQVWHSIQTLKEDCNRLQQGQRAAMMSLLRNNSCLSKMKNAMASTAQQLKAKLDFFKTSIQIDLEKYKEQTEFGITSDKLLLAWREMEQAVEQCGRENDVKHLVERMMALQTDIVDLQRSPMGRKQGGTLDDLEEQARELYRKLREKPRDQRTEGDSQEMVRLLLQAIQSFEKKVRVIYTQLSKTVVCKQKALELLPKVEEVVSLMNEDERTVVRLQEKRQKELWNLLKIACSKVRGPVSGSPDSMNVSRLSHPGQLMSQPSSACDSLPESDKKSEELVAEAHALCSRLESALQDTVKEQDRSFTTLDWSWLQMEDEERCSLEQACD

C8D1A = test: Inhibition of NFkappaB p65 phosphorylation at […] in LPS-induced mouse C8D1A cells at 0.75 to 3 uM pretreated for 4 hrs followed by LPS stimulation measured after 24 hrs by Western blotting analysis; type: cell-based; conditions: dose 0.75-3 µM
C8-D1A [15] = test: Effect on LPS-induced inflammasome activation in mouse C8D1A cells assessed as reduction in NLRP3 protein level at 0.75 to 3 uM by Western blotting analysis; type: functional, cell-based; conditions: dose 0.75-3 µM
C8-D1A [16] = test: Effect on LPS-induced inflammasome activation in mouse C8D1A cells assessed as reduction in caspase 1 protein level at 0.75 to 3 uM by Western blotting analysis; type: functional, cell-based; conditions: dose 0.75-3 µM
C8-D1A [17] = test: Antiinflammatory activity against mouse C8D1A cells assessed as inhibition of LPS-induced NO production at 3 uM measured after 24 hrs by Griess method; type: functional, cell-based
C8-D1A [18] = test: Antiinflammatory activity against mouse C8D1A cells assessed as inhibition of LPS-induced iNOS expression at 3 uM by Western blotting analysis; type: functional, cell-based
C8-D1A [19] = test: Antiinflammatory activity against mouse C8D1A cells assessed as inhibition of LPS-induced NO production at 3 uM measured after 24 hrs in presence of Y1R antagonist BIIE-0246 by Griess method; type: functional, cell-based
C8-D1A [20] = test: Antiinflammatory activity against mouse C8D1A cells assessed as inhibition of LPS-induced iNOS expression at 3 uM in presence of Y1R antagonist BIIE-0246 by Western blotting analysis; type: functional, cell-based

For `CC[C@H](C)[C@H](NC(=O)[C@@H](NC(=O)[C@@H](NC(=O)[C@H](Cc1ccc(O)cc1)NC(=O)[C@H](Cc1ccc(O)cc1)NC(=O)CNC(=O)[C@H](C)NC(=O)[C@H](CC(C)C)NC(=O)[C@H](CC(=O)O)NC(=O)[C@H](CO)NC(=O)[C@H](CC(C)C)NC(=O)[C@H](Cc1ccc(O)cc1)NC(=O)[C@H](C)NC(=O)[C@H](CC(N)=O)NC(=O)[C@H](CC(C)C)NC(=O)[C@H](CCC(=O)O)NC(=O)[C@H](C)NC(=O)[C@H](CCSC)NC(=O)[C@H](CO)NC(=O)[C@H](CCCCN)NC(=O)[C@H](Cc1ccccc1)NC(=O)[C@H](CO)NC(=O)[C@H](CCC(=O)O)NC(=O)[C@@H]1CCCN1C(=O)[C@H](CCCNC(=N)N)NC(=O)[C@H](CCCCN)NC(=O)[C@@H]1CCCN1C(=O)[C@@H]1CCCN1C(=O)CNC(=O)CNC(=O)[C@@H](N)C(C)C)[C@@H](C)O)C(C)C)C(=O)NCC(=O)N[C@@H](CCCNC(=N)N)C(=O)N1CCC[C@H]1C(=O)N[C@@H](CCCNC(=N)N)C(=O)N[C@@H](Cc1ccccc1)C(=O)O` (H-VGGPPKRPESFKSMAELNAYLSDLAGYYTVIGRPRF-OH), the Activity (C8-D1A [1]) was “Non-Toxic”, the Activity (C8-D1A [2]) was “Active” and the inhibition (C8-D1A [3]) was “Dde”. The inhibition (C8-D1A [4]) was “Dde”, the inhibition (C8-D1A [5]) was “Dde” and the inhibition (C8-D1A [6]) was “Active”. For the same compound, the inhibition (C8-D1A [7]) was “Active”, the inhibition (C8-D1A [8]) was “Active” and the inhibition (C8-D1A [9]) was “Active”. The inhibition (C8-D1A [10]) was “Active”, the inhibition (C8-D1A [11]) was “Active” and the inhibition (C8-D1A [12]) was “Active”. The inhibition [13] was “Active”, the inhibition [14] was “Active” and the inhibition (C8D1A) was “Active”. For the same compound, the inhibition (C8-D1A [15]) was “Active”, the inhibition (C8-D1A [16]) was “Active” and the inhibition (C8-D1A [17]) was “Active”. For the same compound, the inhibition (C8-D1A [18]) was “Active”, the inhibition (C8-D1A [19]) was “Active” and the inhibition (C8-D1A [20]) was “Active”.
